From PubChem BioAssay AID602323 (The Scripps Research Institute Molecular Screening Center, 2012) come the findings set out here.

Holding throughout (assay): serine hydrolase inhibition in mouse brain membranes, late-stage follow-up, selectivity assay for DAGLb inhibitor project, biochemical, gel-based competitive ABPP, fluorescence, set 2 (AID 602323)
In experiment [1] the target is Diacylglycerol lipase-beta (Mus musculus) (UniProt Q91WC9). Conditions: mouse brain membrane, DAGLb, at 1 µM, hits give high values.
Experiment [2] addresses Monoacylglycerol lipase ABHD6 (Mus musculus) (UniProt Q8R2Y0). Particulars: mouse brain membrane, at 1 µM, hits give high values.
Experiment [3] deals with Platelet-activating factor acetylhydrolase (Mus musculus) (UniProt Q60963). Conditions: mouse brain membrane, PLA2G7, at 1 µM, hits give high values.

Calls of active or inactive are those of the source. The rule behind the calls is not given here.

Chain of Platelet-activating factor acetylhydrolase (Mus musculus) (Q60963 whole entry, looked up): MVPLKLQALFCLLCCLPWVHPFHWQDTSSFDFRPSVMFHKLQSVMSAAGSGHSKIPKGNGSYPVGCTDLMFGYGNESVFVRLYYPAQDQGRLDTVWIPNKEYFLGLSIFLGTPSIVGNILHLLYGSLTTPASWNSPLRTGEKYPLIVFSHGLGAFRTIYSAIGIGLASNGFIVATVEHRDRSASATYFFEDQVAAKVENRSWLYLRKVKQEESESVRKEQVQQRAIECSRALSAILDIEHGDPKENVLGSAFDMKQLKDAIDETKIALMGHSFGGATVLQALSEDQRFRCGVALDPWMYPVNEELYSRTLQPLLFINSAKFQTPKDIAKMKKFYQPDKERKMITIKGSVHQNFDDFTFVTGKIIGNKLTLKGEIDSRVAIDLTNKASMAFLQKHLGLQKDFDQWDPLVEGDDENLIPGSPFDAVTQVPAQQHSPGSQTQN
Chain of Diacylglycerol lipase-beta (Mus musculus) (Q91WC9 whole entry, looked up): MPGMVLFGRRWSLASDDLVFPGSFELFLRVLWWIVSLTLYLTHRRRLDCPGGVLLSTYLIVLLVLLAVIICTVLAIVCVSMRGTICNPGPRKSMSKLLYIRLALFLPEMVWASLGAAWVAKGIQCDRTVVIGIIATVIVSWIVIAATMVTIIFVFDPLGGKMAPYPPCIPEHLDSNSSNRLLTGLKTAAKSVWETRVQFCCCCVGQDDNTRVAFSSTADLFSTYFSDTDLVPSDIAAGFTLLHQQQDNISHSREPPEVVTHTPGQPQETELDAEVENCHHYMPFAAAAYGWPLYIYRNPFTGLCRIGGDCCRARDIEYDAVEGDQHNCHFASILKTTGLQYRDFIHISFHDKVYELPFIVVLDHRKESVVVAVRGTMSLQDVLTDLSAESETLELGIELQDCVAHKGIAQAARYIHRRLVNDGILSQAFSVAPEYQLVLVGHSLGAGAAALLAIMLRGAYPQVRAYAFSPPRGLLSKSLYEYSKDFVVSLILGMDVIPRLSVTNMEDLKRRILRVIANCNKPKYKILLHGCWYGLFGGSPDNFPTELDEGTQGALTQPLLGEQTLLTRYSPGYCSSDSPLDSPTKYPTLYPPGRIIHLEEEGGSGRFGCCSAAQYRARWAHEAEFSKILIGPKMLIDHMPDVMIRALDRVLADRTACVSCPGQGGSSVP
Chain of Monoacylglycerol lipase ABHD6 (Mus musculus) (Q8R2Y0 whole entry, looked up): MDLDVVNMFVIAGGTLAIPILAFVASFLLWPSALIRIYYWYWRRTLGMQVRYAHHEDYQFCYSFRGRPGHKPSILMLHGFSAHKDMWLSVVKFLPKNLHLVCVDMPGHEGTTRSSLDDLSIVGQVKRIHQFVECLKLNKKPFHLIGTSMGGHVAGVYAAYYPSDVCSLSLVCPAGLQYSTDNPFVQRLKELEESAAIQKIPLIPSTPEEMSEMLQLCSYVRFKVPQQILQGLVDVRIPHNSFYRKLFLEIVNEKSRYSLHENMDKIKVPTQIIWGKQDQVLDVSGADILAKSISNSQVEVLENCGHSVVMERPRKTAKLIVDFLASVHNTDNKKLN

As for `O=C(N1CCCCC1Cc1ccccc1)n1cc(-c2cc(F)cc(F)c2)nn1` (stereo not given), the inhibition (commonly the change of the read-out against control, counted positive when it falls) in experiment [1] is 85%; in experiment [2], 98%; in experiment [3], 95%.
As for `O=C(N1CCCCC1Cc1ccccc1)n1cc(-c2ccc(-c3cccc(CO)c3)cc2)nn1` (stereo not given), the inhibition was 25% (inactive) in experiment [1], 90% in experiment [2] and 0% (inactive) in experiment [3].
The like results for `O=C(N1CCCCC1Cc1ccccc1)n1ncc(-c2ccc(OC(F)(F)F)cc2)n1` (stereo not given) were, in that order, 50%, 70% and 90%.
Consider `O=C(N(CCc1ccccc1)Cc1ccco1)n1cc(-c2ccc(OC(F)(F)F)cc2)nn1`, for which the inhibition in experiment [1], in experiment [2] and in experiment [3] was 95% each time.
As for `O=C(N1CCCCC1Cc1ccccc1)n1cc(-c2ccc(-c3ccccc3Cl)cc2)nn1` (stereo not given), the inhibition in experiment [1], in experiment [2] and in experiment [3] was 90% throughout.
Take `O=C(c1ccc(-c2ccc(-c3cn(C(=O)N4CCCCC4Cc4ccccc4)nn3)cc2)cc1)N1CCCCC1` (stereo not given): the inhibition in experiment [1] is 20% (inactive); in experiment [2], 90%; in experiment [3], 0% (inactive).
As to `O=C(N1CCCCC1Cc1ccccc1)n1cc(-c2ccc(-c3ccc4c(c3)OCO4)cc2)nn1` (stereo not given), the inhibition was 25% (inactive) in experiment [1], 90% in experiment [2] and 20% (inactive) in experiment [3].
For the molecule `CC(C)(C)OC(=O)NCCCCCN(CCc1ccccc1)C(=O)n1cc(-c2ccc(OC(F)(F)F)cc2)nn1`, the inhibition in experiment [1] was 95%; in experiment [2] it was 90%; in experiment [3], 95%.
For `O=C(N1CCCCC1Cc1ccccc1)n1cc(-c2ccc(-c3ccccc3CO)cc2)nn1` (stereo not given), the inhibition is 90% in experiment [1], 95% in experiment [2] and 20% (inactive) in experiment [3].
In the case of `O=C(N1CCCCC1Cc1ccccc1)n1cc(-c2ccc(-c3cccc(C(F)(F)F)c3)cc2)nn1` (stereo not given), the inhibition in experiment [1] is 45% (inactive); in experiment [2], 95%; in experiment [3], 25% (inactive).
Consider `O=C(N1CCCCC1Cc1ccccc1)n1cc(-c2ccc(OC(F)(F)F)cc2)nn1` (stereo not given), for which the inhibition in experiment [1], in experiment [2] and in experiment [3] was 90% throughout.
Consider `O=C(c1ccc(-c2cn(C(=O)N3CCCCC3Cc3ccccc3)nn2)cc1)N1CCCCC1` (stereo not given), for which the inhibition is 95% in experiment [1], 95% in experiment [2] and 30% (inactive) in experiment [3].
For the molecule `O=C(N1CCCCC1Cc1ccccc1)n1cc(-c2ccc(-c3ccc(C(F)(F)F)cc3)cc2)nn1` (stereo not given), the inhibition is 25% (inactive) in experiment [1], 80% in experiment [2] and 50% in experiment [3].
As for `O=C(N1CCCCC1Cc1ccccc1)n1cc(-c2ccc(-c3ccc(OC(F)(F)F)cc3)cc2)nn1` (stereo not given), the inhibition in experiment [1] was 20% (inactive); in experiment [2] it was 90%; in experiment [3] it was 50%.
On the same counts, the results for `O=C(N1CCCCC1Cc1ccccc1)n1cc(-c2cccc(-c3ccccc3)c2)nn1` (stereo not given) are 75%, 95% and 30% (inactive).
`O=C(N1CCCCC1Cc1ccccc1)n1cc(-c2ccc(-c3ccoc3)cc2)nn1` (stereo not given): the results for the inhibition in experiment [1], in experiment [2] and in experiment [3] were 60%, 90% and 45% (inactive), respectively.
Take `O=C(N1CCCCC1Cc1ccccc1)n1cc(-c2ccc(Br)cc2)nn1` (stereo not given): the inhibition in experiment [1] was 85%; in experiment [2] it was 98%; in experiment [3], 95%.
Turning to `O=C(N1CCCCC1Cc1ccccc1)n1cc(-c2ccc(-c3ccccc3)cc2)nn1` (stereo not given), the inhibition in experiment [1] is 80%; in experiment [2], 95%; in experiment [3] it was 40% (inactive).
The like results for `COc1ccccc1-c1ccc(-c2cn(C(=O)N3CCCCC3Cc3ccccc3)nn2)cc1` (stereo not given) were, in that order, 85%, 95% and 25% (inactive).
Regarding `CC(C)CN(CCc1ccccc1)C(=O)n1cc(-c2ccc(OC(F)(F)F)cc2)nn1`, the results for the inhibition in experiment [1], in experiment [2] and in experiment [3] were 90%, 95% and 95%, respectively.
`O=C(N1CCCCC1Cc1ccccc1)n1cc(-c2ccccc2-c2ccccc2)nn1` (stereo not given): the inhibition in experiment [1] was 75%; in experiment [2], 95%; in experiment [3], 40% (inactive).
On the same counts, the results for `Cc1ccccc1-c1ccc(-c2cn(C(=O)N3CCCCC3Cc3ccccc3)nn2)cc1` (stereo not given) are 80%, 90% and 80%.
On to `O=C(N1CCCCC1Cc1ccccc1)n1cc(-c2ccc(-c3ccccc3C(F)(F)F)cc2)nn1` (stereo not given), for which the inhibition in experiment [1] is 75%; in experiment [2], 90%; in experiment [3], 25% (inactive).
As for `O=C(N1CCCCC1Cc1ccccc1)n1cc(-c2ccc(-c3ccccc3OC(F)(F)F)cc2)nn1` (stereo not given), the inhibition in experiment [1] was 80%; in experiment [2] it was 95%; in experiment [3], 60%.
For `O=C(N1CCCCC1Cc1ccccc1)n1ncc(C(O)(c2ccccc2)c2ccccc2)n1` (stereo not given), the inhibition in experiment [1] is 80%; in experiment [2], 90%; in experiment [3] it was 0% (inactive).
